Values quoted from earlier work, collected in patent US20260191920A1, “METHODS AND COMPOSITIONS FOR TREATING AND PREVENTING CENTRAL NERVOUS SYSTEM DISORDERS AND OTHER CONDITIONS CAUSED BY GUT MICROBIAL DYSBIOSIS” (HOLOBIOME, INC., priority 2019, published 2026).

Experiments:
[1] = by day 6, mice pretreated with oral antibiotics, regardless of diet; cited from earlier work
[2] = tested on: (Q+)tRNA^His and (Q+)tRNA^Asn in the liver; settings: queuine-deficient mice, intraperitoneal, 325 micrograms per injection, 24 h apart; cited from earlier work
germ-free mice = settings: chemically synthesized queuine at 0.1 μM in the diet; cited from earlier work

For [CH3][Hg][Cl] [methylmercury], the “fraction of ingested dose eliminated” value [1] is listed as 0-6%.

For Nc1nc2[nH]cc(CN[C@H]3C=C[C@H](O)[C@@H]3O)c2c(=O)[nH]1 [queuine, 2-amino-5-((((1S,4S,5R)-4,5-dihydroxy-2-cyclopenten-1-yl)amino)methyl)-1,7-dihydro-4H-pyrrolo (2,3-d) pyrimidin-4-one], the “(Q+)tRNA^His and (Q+)tRNA^Asn percentages in the liver” value [2] is given as “corresponding increase” and the “effect on adverse health effects and death of tyrosine- and queuine-deprived germ-free mice” value (germ-free mice) is given as “prevented emergence of these deleterious effects”.
